Experimental data: ChEMBL document CHEMBL1201862, “PubChem BioAssay data set” (2004)
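Values below derive from 48-hour exposures of cells grown in 96-well plates, with endpoints linearly interpolated between the two concentrations bracketing the appropriate inhibition level. At the GI50, growth is halved.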 Active and inactive are the calls of the source. Cut-off read from the data, not from the text of the source: active = GI50 up to about 1.1 µM and inactive = higher.

Columns and labels:
Assay in all cases: NCI-60 cell line screen, 48 h
M14 = system: M14
SF-268 = system: SF-268
SK-MEL-28 = system: SK-MEL-28
Hs-578T = system: Hs-578T
UO-31 = system: UO-31
LOX IMVI = system: LOX IMVI
OVCAR-3 = system: OVCAR-3
A498 = system: A498
MOLT-4 = system: MOLT-4
HOP-62 = system: HOP-62
MDA-N = system: MDA-N
RXF 393 = system: RXF 393
MDA-MB-231 = system: MDA-MB-231
RPMI-8226 = system: RPMI-8226
OVCAR-8 = system: OVCAR-8
PC-3 = system: PC-3
HCC 2998 = system: HCC 2998
SF-539 = system: SF-539
COLO 205 = system: COLO 205

Measured: GI50

Cc1ccc(S(=O)(=O)OCC(=O)O)cc1
inactive: M14 > 100 µM | SF-268 > 100 µM | SK-MEL-28 > 100 µM | Hs-578T > 100 µM | UO-31 > 100 µM | LOX IMVI > 100 µM | OVCAR-3 > 100 µM | A498 > 100 µM | MOLT-4 > 100 µM | HOP-62 > 100 µM | MDA-N > 100 µM | RXF 393 > 100 µM | MDA-MB-231 > 100 µM | RPMI-8226 > 100 µM | OVCAR-8 > 100 µM | PC-3 > 100 µM

c1cn(C23C4C5C6C4C2C6C53)cn1 (configuration not stated)
inactive: HCC 2998 > 100 µM | M14 > 100 µM | SF-268 > 100 µM | SK-MEL-28 > 100 µM | Hs-578T > 100 µM | LOX IMVI > 100 µM | SF-539 > 100 µM | A498 > 100 µM | MOLT-4 > 100 µM | HOP-62 > 100 µM | MDA-N > 100 µM | MDA-MB-231 > 100 µM | RPMI-8226 > 100 µM | OVCAR-8 > 100 µM | COLO 205 > 100 µM | PC-3 > 100 µM

CC1(C)CCC2=C(O1)/C(=N\Nc1ccccc1)c1ccccc1C2=O
inactive: M14 31.5 µM | SF-268 48.3 µM | SK-MEL-28 59.6 µM | Hs-578T 35.6 µM | UO-31 17.8 µM | LOX IMVI 22 µM | OVCAR-3 24 µM | SF-539 26.5 µM | A498 20 µM | MOLT-4 34 µM | HOP-62 35.4 µM | MDA-N 16.1 µM | RXF 393 16.6 µM | MDA-MB-231 25.4 µM | RPMI-8226 31.4 µM | OVCAR-8 36.2 µM | COLO 205 31.8 µM | PC-3 24.1 µM

O=[N+]([O-])/C(C(Cl)=C(Cl)Cl)=C(\NCc1ccccc1)Sc1ccccc1
inactive: HCC 2998 34.9 µM | M14 32.8 µM | SF-268 24.3 µM | SK-MEL-28 17.3 µM | Hs-578T 15.1 µM | UO-31 17.2 µM | LOX IMVI 13.7 µM | OVCAR-3 17.6 µM | SF-539 19.9 µM | A498 25.9 µM | MOLT-4 > 100 µM | HOP-62 24 µM | MDA-N 31.7 µM | MDA-MB-231 40.7 µM | RPMI-8226 34.7 µM | OVCAR-8 16.9 µM | COLO 205 18.7 µM | PC-3 27.5 µM

N#CCCN(CCC#N)c1ccc(/C=C2\N=C(c3ccccc3)N(c3ccc(F)cc3)C2=O)cc1
inactive: M14 > 100 µM | SF-268 > 100 µM | SK-MEL-28 > 100 µM | Hs-578T > 100 µM | UO-31 > 100 µM | LOX IMVI > 100 µM | OVCAR-3 > 100 µM | SF-539 > 100 µM | A498 > 100 µM | MOLT-4 > 100 µM | HOP-62 > 100 µM | MDA-N > 100 µM | RXF 393 > 100 µM | MDA-MB-231 > 100 µM | RPMI-8226 > 100 µM | OVCAR-8 > 100 µM | COLO 205 > 100 µM | PC-3 > 100 µM

NS(=O)(=O)c1ccc(NCc2cnc3ccccc3c2)cc1
inactive: HCC 2998 > 100 µM | M14 > 100 µM | SF-268 39.8 µM | SK-MEL-28 > 100 µM | Hs-578T 51.8 µM | UO-31 > 100 µM | OVCAR-3 > 100 µM | SF-539 30.5 µM | A498 > 100 µM | MOLT-4 > 100 µM | HOP-62 > 100 µM | MDA-N > 100 µM | RXF 393 > 100 µM | MDA-MB-231 > 100 µM | RPMI-8226 > 100 µM | OVCAR-8 34.7 µM | COLO 205 > 100 µM | PC-3 > 100 µM

CCOC(=O)c1[nH]c2ccccc2c1C(=O)C[C@H](NC(=O)C(F)(F)F)C(=O)OC
inactive: HCC 2998 > 100 µM | M14 > 100 µM | SF-268 > 100 µM | SK-MEL-28 > 100 µM | Hs-578T > 100 µM | UO-31 75.3 µM | LOX IMVI > 100 µM | OVCAR-3 > 100 µM | SF-539 > 100 µM | A498 > 100 µM | MOLT-4 > 100 µM | HOP-62 > 100 µM | MDA-N > 100 µM | MDA-MB-231 > 100 µM | RPMI-8226 > 100 µM | OVCAR-8 > 100 µM | COLO 205 > 100 µM | PC-3 > 100 µM

O=[N+]([O-])c1cccc(/N=N/c2c(O)c(S(=O)(=O)O)cc3cc(S(=O)(=O)O)ccc23)c1
inactive: HCC 2998 > 100 µM | M14 > 100 µM | SF-268 > 100 µM | SK-MEL-28 > 100 µM | Hs-578T > 100 µM | UO-31 > 100 µM | OVCAR-3 > 100 µM | SF-539 > 100 µM | A498 > 100 µM | MOLT-4 > 100 µM | HOP-62 > 100 µM | MDA-N > 100 µM | RXF 393 > 100 µM | MDA-MB-231 > 100 µM | OVCAR-8 > 100 µM | COLO 205 > 100 µM | PC-3 > 100 µM

Nc1nc(Cl)cc(NCC2(CO)CC(c3ccccc3)C2)n1 (configuration not stated)
inactive: M14 34.6 µM | SF-268 94.4 µM | SK-MEL-28 53.3 µM | Hs-578T 19.2 µM | UO-31 16.6 µM | LOX IMVI 7.16 µM | OVCAR-3 > 100 µM | SF-539 > 100 µM | A498 22.8 µM | MOLT-4 19.8 µM | HOP-62 > 100 µM | MDA-N 31 µM | RXF 393 58.9 µM | MDA-MB-231 26.4 µM | RPMI-8226 17.2 µM | OVCAR-8 34.7 µM | COLO 205 29.1 µM | PC-3 18 µM

Oc1c(C2=NNC(c3ccc(Cl)cc3Cl)C2)ccc2ccccc12 (configuration not stated)
inactive: HCC 2998 34.5 µM | M14 26.5 µM | SF-268 33 µM | SK-MEL-28 45.7 µM | Hs-578T 35.6 µM | UO-31 54.3 µM | OVCAR-3 20.1 µM | SF-539 30.5 µM | A498 71.4 µM | MOLT-4 5.7 µM | HOP-62 38.7 µM | MDA-N 19.5 µM | RXF 393 37.9 µM | MDA-MB-231 46.5 µM | RPMI-8226 32 µM | OVCAR-8 29.4 µM | COLO 205 32 µM | PC-3 31.6 µM

O=C(NCc1ccc(Cl)c(Cl)c1)c1nc2ccccc2nc1NCc1ccc(Cl)c(Cl)c1
inactive: HCC 2998 > 100 µM | M14 > 100 µM | SF-268 > 100 µM | SK-MEL-28 > 100 µM | Hs-578T > 100 µM | UO-31 > 100 µM | LOX IMVI > 100 µM | OVCAR-3 > 100 µM | SF-539 > 100 µM | A498 > 100 µM | HOP-62 83.6 µM | MDA-N > 100 µM | RXF 393 > 100 µM | MDA-MB-231 > 100 µM | OVCAR-8 > 100 µM | COLO 205 > 100 µM | PC-3 > 100 µM
